Measurements: patent US20070213686A1, “System and method for prevention of radiocontrast induced nephropathy” (priority 2003, published 2007)
Structures can show the parent of a compound that is named as a salt.

Tests used:
[1] = Intra-renal delivery of fenoldopam, renal artery blood flow; assay type: in vivo, human; conditions: intra-renal delivery at about 0.1 and about 0.2 mcg/kg/min
Procedure: At the time of the procedure, a switch to local delivery can easily be made with the previously described bifurcated catheter. […] Therefore another titration (in this situation most frequently migrating upward) is performed according to further embodiments, starting at the systemic dose, and moving towards a tolerated local dose, for the duration of the intended catheterization. Post-procedure, if the specialized bifurcated catheter is preferably to be removed, then the administration could be returned to a systemic dose, with or without additional hydration concurrently.

[2] = cited from earlier work
[3] = tested on: hypovolemic dogs receiving contrast; conditions: cited from earlier work
[4] = tested on: contrast nephropathy; conditions: cited from earlier work
[5] = systemic regimens; nausea and vomiting, flushing, hypotension, tachycardia, hypokalemia, ST/T-wave changes, dizziness, dyspnea; cited from earlier work
[6] = Local renal papaverine, renal blood flow in human subjects; assay type: in vivo; conditions: local renal doses of about 2 mg/min and about 3 mg/min

Structure (SMILES) | renal artery blood flow [1] | increase in renal blood flow from baseline ([2]; normal volunteers, 0.1 mcg/kg/min) | increment in renal blood flow ([2]; patients with a mean serum creatinine of 2.6 mg/dL, 0.1 mcg/kg/min) [%] | renal vasodilation ([2]; systemic doses as low as approximately 0.01 through approximately 0.5 mcg/kg/min IV) | renal blood flow and renal function (glomerular filtration rate) [3] | efficacy in preventing contrast nephropathy, 0.2 vs 0.1 mcg/kg/min ([4]; 0.2 mcg/kg/min compared with 0.1 mcg/kg/min) | benefit over saline (CONTRAST trial) ([4]; 300 patients, 0.05-0.1 mcg/kg/min systemic IV over 12 hours) | renal function in high-risk patients undergoing contrast procedures ([4]; small studies incl. randomized, double blind, placebo-controlled trial, 0.05-0.5 mcg/kg/min for 4-6 hours, started prior to contrast) | frequency of common side effects other than headache [5] [%] | renal blood flow rates [6]
Oc1ccc(C2CNCCc3c2cc(O)c(O)c3Cl)cc1 (stereo not shown) [fenoldopam, fenoldopam mesylate] | significant and immediate increases in renal artery blood flow | approximately 40% | 16 | dose-dependent renal vasodilation | prevented reduction in both renal blood flow and renal function | greater efficacy | no benefit | attenuated worsening of renal function | ≤ 5 | 
COc1ccc(Cc2nccc3cc(OC)c(OC)cc23)cc1OC [papaverine] |  |  |  |  |  |  |  |  |  | increase renal blood flow rates
